The values that follow come from patent US4081441A, “Antibacterial agents” (priority 1977, dated 1978).

The test system of experiment [1] is Pseudomonas aeruginosa A9843A. The class given is in vivo, mice. To be noted: mouse, in vivo.
The test system of the next experiment is Pseudomonas aeruginosa. The experiment can be described thus: In vitro bactericidal synergism, broth dilution checkerboard. The class given is cell-based. The following applies: for MBC: Pseudomonas aeruginosa, drug alone, read-out: Minimum Bactericidal Concentration.
A further experiment concerns Cl. chauvoei. Nature of the experiment: M.I.C. against anaerobic bacteria, Cl. chauvoei. The class given is cell-based. The following applies: strain A9561.

Like-named read-outs stand apart in the source and are kept apart here.

As usually defined, the MIC is the smallest concentration in the dilution series that meets the test's criterion for growth inhibition. High values mean weaker potency, low ones greater potency. In the case of `CC1(C)S[C@@H]2[C@H](NC(=O)[C@H](NC(=O)c3n[nH]c(=O)[nH]c3=O)c3ccc(O)cc3)C(=O)N2[C@H]1C(=O)O` [BL-P1908, sodium D(-)-6-(α-(1,2,4-triazine-3,5-dione-6-carboxamido)-4-hydroxyphenylacetamido)penicillanate], the “equally effective dosage, drug alone” value in experiment [1] was determined as 5 mg/kg. The MBC turned out to be 500 mg/L in the experiment on Pseudomonas aeruginosa (strain A20552), 500 mg/L with Pseudomonas aeruginosa (strain A21509) and 100 mg/L with Pseudomonas aeruginosa (strain A21510). The strain sensitivity result in the experiment on Pseudomonas aeruginosa (strain A9843A) is recorded as “sensitive”; in the experiment with Pseudomonas aeruginosa (strain A20480) it was “resistant”; in the experiment on Pseudomonas aeruginosa (strain A20552) it was “sensitive”; in the experiment with Pseudomonas aeruginosa (strain A20620), “resistant”; with Pseudomonas aeruginosa (strain A21509), “sensitive”; in the experiment on Pseudomonas aeruginosa (strain A21510) it was “sensitive”. In the experiment with Cl. chauvoei, this compound registered an MIC of 4 mg/L.
